Experimental data published in patent publication US11841360B1, “Systems, devices, and methods for ex vivo assessment of responses to multiple therapeutic agents” (Oregon Health & Science University, priority 2018, dated 2023).

Legend:
BT474 tumors = settings: HER2+ luminal-like BT474 tumors, with NRG1b; cited from earlier work
JIMT1 = settings: HER2+ basal-like JIMT1, with HGF; cited from earlier work
MMTV-PyMT tumors = assay: Multiplex nanodose assay (MNA): implantable microdevice in tumor, CC3/MHC-I IHC and multiplex IHC adjacent to the drug-releasing well; assay type: in vivo, mouse; settings: mIHC, 3 days
Source text: Multiplex nanodose assay (MNA) system and translation to breast cancer patients: The illustrated microdevice (FIG. 6A) is a non-toxic 4×0.8 mm resin cylinder with eighteen 200 μm deep reservoirs, that are packed with active compounds (drugs or drug combinations) in solid form. The device is implanted and stays in the tumor tissue for up to 8 days; after which the tumor/tissue surrounding the device is harvested with the device in place and formalin fixed and paraffin embedded (FFPE). The tumor tissue is analyzed adjacent to each drug well using multiplex IHC (mIHC) with antibodies that interrogate one or more of cleaved caspase activity, epithelial, mesenchymal, endothelial status, as well as immune composition and activity. […] Signal of individual markers are merged and the overlap is quantified.
(FIG. 8A). […] Mean intensity value of the CC3 signal was measured adjacent to the drug releasing reservoir and was normalized to control PEG only loaded reservoir. […] (n=3 regions of interest in one sample for (FIG. 8F) and n=3 drug loaded wells for (FIG. 8D); significance was calculated by a two-tailed t-test with equal variance. Of note, early microdevice studies validated each well to be a biological replicate due to heterogeneous nature of tumors in general (Jonas et al., Sci Transl. Med. 7, 284ra59, 2015). Microfluidic ex vivo platform maintains the viability of the primary mouse tumor tissue. […]

[1] = system: immunocompetent mouse models of triple negative and HER2+ breast cancer with late stage spontaneously developing tumors; assay: MNA small scale screening using 5 FDA approved drugs, CC3 and multiplex IHC; assay type: in vivo; settings: for infiltration of cytotoxic neutrophils: mIHC close to the drug releasing well
Source text: Panobinostat induces immunogenic cell death associated with Neuropilin-1 neutrophil infiltration: We have developed a novel pre-clinical model system—the Multiplex Nanodose Assay (MNA)—that enables a comprehensive single cell analysis of drug-mediated effects in complex tumor microenvironment (TME). The MNA is based on a recently developed implantable microdevice that performs drug sensitivity testing of multiple drugs at once inside a living tissue (FIGS. 18A and 18B) (Jonas et al., Sci Transl Med 7:284ra57, 2015; Watson et al., Cell Syst 1-14, 2018, doi.org/10.1016/j.cels.2018.02.001). The drugs are passively released into distinct tumor regions and we analyze the drug mediated effects in close proximity to the drug releasing well by multiplex immunohistochemistry (mIHC) (FIG. 18C). This is a sequential IHC staining on a single formalin fixed paraffin embedded (FFPE) tissue for multiparametric characterization of single cells similar to flow cytometry, except that the cells are studies in their natural intact environment (Tsujikawa et al., Cell Rep 19:203-17, 2017; Chang et al., Proc Annu Int Conf IEEE Eng Med Biol Soc EMBS. 4046-9, 2017). The spatial relation of the functionally different populations facilitates identification of the drug-mediated cellular mechanisms. This knowledge can be then translated to rapidly identify rational combination treatment strategies.
With the MNA, we have performed a small scale screening using 5 FDA approved drugs in immunocompetent mouse models of triple negative and HER2+ breast cancer with late stage spontaneously developing tumors. […]
Since panobinostat-mediated effects in vivo are likely linked to effective anti-tumor immunity and increased response to PD-1 blockade therapy, we took a closer look at the immediate interaction between dying tumor cells and tumor microenvironment. […] In the multiplex readout panel, we incorporated stains that interrogate basic drug-sensitivity testing, epithelial, mesenchymal, endothelial compartment, but mainly multiple markers of immune composition and activity. […]

CS(=O)(=O)CCNCc1ccc(-c2ccc3ncnc(Nc4ccc(OCc5cccc(F)c5)c(Cl)c4)c3c2)o1 [Lapatinib]
proliferation under TKI in presence of neuregulin-1b (NRG1b) (BT474 tumors): restores the proliferation
apoptosis under TKI in presence of hepatocyte growth factor (HGF) (JIMT1): decreasing apoptosis to normal levels

CCOc1cc2ncc(C#N)c(Nc3ccc(OCc4ccccn4)c(Cl)c3)c2cc1NC(=O)/C=C/CN(C)C [Neratinib]
proliferation under TKI in presence of neuregulin-1b (NRG1b) (BT474 tumors): restores the proliferation
apoptosis under TKI in presence of hepatocyte growth factor (HGF) (JIMT1): decreasing apoptosis to normal levels

Cc1[nH]c2ccccc2c1CCNCc1ccc(/C=C/C(=O)NO)cc1 [panobinostat]
infiltrate of cytotoxic neutrophils at the reservoir (MMTV-PyMT tumors): heavy infiltrate of cytotoxic neutrophils
share of Neuropilin-1 positive cells that are cytotoxic neutrophils (Myeloperoxidase staining) ([1]; at the panobinostat well): ~85%
infiltration of cytotoxic neutrophils [1]: increased infiltration of cytotoxic neutrophils
infiltration of cytotoxic neutrophils ([1]; listed as Panobinostat): robust increase of neutrophils
